Results taken from patent US20030099693A1, “Wafer” (priority 2001, published 2003).

Experiments:
Assay type in all cases: biochemical
Conditions in all cases: Adjusted for Plasma Protein Binding
[1] = target: TPA (Homo sapiens, UniProt P00750); assay: Concentration for 50% enzyme inhibition, TPA
Source text: (§1) The solubility range to achieve efficacious doses without adverse effects for a range of protease inhibitors is shown in Table 1.

[2] = target: uPA (Homo sapiens, UniProt P00749); assay: Concentration for 50% enzyme inhibition, uPA
[3] = target: Plasmin (Homo sapiens, UniProt P00747); assay: Concentration for 50% enzyme inhibition, Plasmin
Sequence of Plasmin (P00747 581-810 limits assumed, species assumed): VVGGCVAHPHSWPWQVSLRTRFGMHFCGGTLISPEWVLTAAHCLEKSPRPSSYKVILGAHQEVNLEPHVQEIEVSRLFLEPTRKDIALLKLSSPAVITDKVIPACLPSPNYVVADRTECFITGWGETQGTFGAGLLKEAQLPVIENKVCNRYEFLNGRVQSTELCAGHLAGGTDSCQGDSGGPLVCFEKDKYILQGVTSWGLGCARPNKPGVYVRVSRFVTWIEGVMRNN
Sequence of Plasmin (P00747 97-580 partner limits assumed, species assumed): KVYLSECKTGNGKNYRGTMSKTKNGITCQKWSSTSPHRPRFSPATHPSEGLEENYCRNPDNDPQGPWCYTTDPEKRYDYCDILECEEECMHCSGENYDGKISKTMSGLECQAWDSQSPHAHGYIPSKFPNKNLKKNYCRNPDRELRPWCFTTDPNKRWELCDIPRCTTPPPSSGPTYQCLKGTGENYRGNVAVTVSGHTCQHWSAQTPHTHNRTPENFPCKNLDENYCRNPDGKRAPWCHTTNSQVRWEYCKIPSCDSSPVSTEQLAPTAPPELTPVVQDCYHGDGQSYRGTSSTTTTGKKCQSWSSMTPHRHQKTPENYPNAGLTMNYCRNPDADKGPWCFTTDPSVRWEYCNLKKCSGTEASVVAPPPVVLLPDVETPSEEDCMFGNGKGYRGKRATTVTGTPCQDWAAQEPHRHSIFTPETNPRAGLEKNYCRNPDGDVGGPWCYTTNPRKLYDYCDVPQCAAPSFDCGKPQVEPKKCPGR
Source text: as §1

[4] = target: MMP-14 (Homo sapiens, UniProt P50281); assay: Concentration for 50% enzyme inhibition, MMP-14
[5] = target: MMP-9 (Homo sapiens, UniProt P14780); assay: Concentration for 50% enzyme inhibition, MMP-9
Sequence of MMP-9 (P14780 94-707, species assumed): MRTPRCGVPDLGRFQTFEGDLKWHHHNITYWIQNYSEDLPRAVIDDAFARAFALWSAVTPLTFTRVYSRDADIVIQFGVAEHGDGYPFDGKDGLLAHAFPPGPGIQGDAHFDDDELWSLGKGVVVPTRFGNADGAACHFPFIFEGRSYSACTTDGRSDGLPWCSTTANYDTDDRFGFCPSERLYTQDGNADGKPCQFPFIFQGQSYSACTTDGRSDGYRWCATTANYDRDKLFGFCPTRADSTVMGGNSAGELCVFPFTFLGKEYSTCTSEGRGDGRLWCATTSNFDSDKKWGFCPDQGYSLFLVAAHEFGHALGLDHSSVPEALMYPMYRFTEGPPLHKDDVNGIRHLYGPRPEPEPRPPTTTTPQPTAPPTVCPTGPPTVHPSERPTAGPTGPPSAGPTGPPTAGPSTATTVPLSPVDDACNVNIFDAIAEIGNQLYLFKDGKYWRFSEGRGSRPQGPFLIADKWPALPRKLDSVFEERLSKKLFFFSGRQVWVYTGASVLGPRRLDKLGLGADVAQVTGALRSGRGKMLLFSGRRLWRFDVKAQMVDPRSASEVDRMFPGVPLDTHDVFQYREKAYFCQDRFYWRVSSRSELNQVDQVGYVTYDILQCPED
Source text: as §1

[6] = target: MMP-3 (Homo sapiens, UniProt P08254); assay: Concentration for 50% enzyme inhibition, MMP-3
Sequence of MMP-3 (P08254 100-477, species assumed): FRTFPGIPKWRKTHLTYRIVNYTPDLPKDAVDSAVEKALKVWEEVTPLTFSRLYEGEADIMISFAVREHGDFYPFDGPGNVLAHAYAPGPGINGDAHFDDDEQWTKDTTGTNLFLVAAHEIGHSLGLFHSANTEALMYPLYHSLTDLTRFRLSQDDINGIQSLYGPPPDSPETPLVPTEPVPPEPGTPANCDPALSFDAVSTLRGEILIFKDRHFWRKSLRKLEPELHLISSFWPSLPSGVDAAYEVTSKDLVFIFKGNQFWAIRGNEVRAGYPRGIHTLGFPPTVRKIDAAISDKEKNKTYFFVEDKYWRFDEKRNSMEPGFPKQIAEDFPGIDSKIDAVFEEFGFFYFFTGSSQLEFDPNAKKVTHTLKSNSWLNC

[7] = target: T1, MMP-2 (Homo sapiens, UniProt P08253); assay: Concentration for 50% enzyme inhibition, MMP-2
T1 sequence (P08253 110-660): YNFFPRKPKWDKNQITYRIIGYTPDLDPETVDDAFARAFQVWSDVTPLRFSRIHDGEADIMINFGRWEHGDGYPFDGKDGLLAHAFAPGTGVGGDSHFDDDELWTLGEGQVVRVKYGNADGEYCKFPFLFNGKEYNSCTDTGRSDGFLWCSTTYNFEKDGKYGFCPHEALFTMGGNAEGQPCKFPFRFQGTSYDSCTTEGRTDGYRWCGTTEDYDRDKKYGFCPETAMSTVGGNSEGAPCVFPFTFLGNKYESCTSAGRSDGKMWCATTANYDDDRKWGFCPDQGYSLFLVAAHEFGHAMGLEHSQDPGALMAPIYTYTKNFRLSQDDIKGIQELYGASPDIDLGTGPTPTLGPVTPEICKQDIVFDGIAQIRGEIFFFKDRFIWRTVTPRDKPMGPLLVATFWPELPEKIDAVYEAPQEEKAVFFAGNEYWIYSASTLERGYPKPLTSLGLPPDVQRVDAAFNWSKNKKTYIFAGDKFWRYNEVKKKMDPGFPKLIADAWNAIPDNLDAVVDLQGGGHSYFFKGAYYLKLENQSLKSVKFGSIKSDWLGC

Sequence of TPA (P00750 36-562, species assumed): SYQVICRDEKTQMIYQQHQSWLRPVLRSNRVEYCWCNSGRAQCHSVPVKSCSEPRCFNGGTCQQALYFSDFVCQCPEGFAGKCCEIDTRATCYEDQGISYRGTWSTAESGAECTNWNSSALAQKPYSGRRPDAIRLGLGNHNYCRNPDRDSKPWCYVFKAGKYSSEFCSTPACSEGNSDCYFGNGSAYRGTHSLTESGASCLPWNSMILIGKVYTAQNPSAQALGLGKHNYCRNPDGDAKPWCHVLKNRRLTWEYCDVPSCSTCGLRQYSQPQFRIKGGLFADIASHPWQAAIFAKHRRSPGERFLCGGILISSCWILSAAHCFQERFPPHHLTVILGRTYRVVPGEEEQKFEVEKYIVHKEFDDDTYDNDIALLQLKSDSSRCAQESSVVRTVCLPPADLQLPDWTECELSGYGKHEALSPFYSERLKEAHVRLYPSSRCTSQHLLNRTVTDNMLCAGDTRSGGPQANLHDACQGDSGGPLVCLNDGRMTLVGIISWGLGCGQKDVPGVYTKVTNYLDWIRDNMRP

IC50 [1] [mM]	IC50 [2] [mM]	IC50 [3] [mM]	IC50 [4] [mM]	IC50 [5] [mM]	IC50 [6] [mM]	IC50 [7] [mM]	Compound
> 33.2	0.0117	33.2	–	–	–	–	NC(N)=Nc1ncc(Cl)c2ccc(-c3cccc(C(=O)O)c3)cc12 [inhibitor X, 3-(4-Chloro-1-guanidino-7-isoquinolyl)benzoic acid]
–	–	–	35.6	16.6	0.0175	27.2	COC[C@@H](NC(=O)[C@@H](NC(=O)[C@H](CCCc1ccc(-c2ccccc2)c(C)c1)CC(=O)O)C(C)(C)C)c1ccccc1 [A, (3R)-3-({[(1S)-2,2-Dimethyl-1-({[(1S)-2-methoxy-1-phenylethyl]amino}carbonyl)-propyl]amino}carbonyl)-6-[(3-methyl-4-phenyl)phenyl]hexanoic acid]
